Results: PubChem BioAssay AID2060500 (Molecular Pharmacology Branch, DTP, NCI, 2025)

Test system: 596521-263-R-J1-PDC complex spheroids, viability % of control
Test: Anticancer human tumor 596521-263-R-J1-PDC patient-derived soft tissue sarcoma cell line growth inhibition [GQUAD]
Conditions: for IC50: curve of first compound; for viability, T/C: stronger effect = lower value
Procedure, shortened: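 Tumor cells were grown as complex spheroids with HUVEC endothelial cells and mesenchymal stem cells as stroma. G-quadruplex stabilizers were combined with targeted agents over half-log dilutions from near the clinical Cmax, or from 10 microM.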

[1] = second compound 0.0316 µM, first compound 0.0316 µM
[2] = second compound 0.0316 µM, first compound 0.1 µM
[3] = second compound 0.0316 µM, first compound 0.316 µM
[4] = second compound 0.0316 µM, first compound 1 µM
[5] = second compound 0.0316 µM, first compound 3.16 µM
[6] = second compound 0.0316 µM, first compound 10 µM
[7] = second compound 0.1 µM, first compound 0.0316 µM
[8] = second compound 0.1 µM, first compound 0.1 µM
[9] = second compound 0.1 µM, first compound 0.316 µM
[10] = second compound 0.1 µM, first compound 1 µM
[11] = second compound 0.1 µM, first compound 3.16 µM
[12] = second compound 0.1 µM, first compound 10 µM
[13] = second compound 0.316 µM, first compound 0.0316 µM
[14] = second compound 0.316 µM, first compound 0.1 µM
[15] = second compound 0.316 µM, first compound 0.316 µM
[16] = second compound 0.316 µM, first compound 1 µM
[17] = second compound 0.316 µM, first compound 3.16 µM
[18] = second compound 0.316 µM, first compound 10 µM
[19] = second compound 1 µM, first compound 0.0316 µM
[20] = second compound 1 µM, first compound 0.1 µM
[21] = second compound 1 µM, first compound 0.316 µM
[22] = second compound 1 µM, first compound 1 µM
[23] = second compound 1 µM, first compound 3.16 µM
[24] = second compound 1 µM, first compound 10 µM
[25] = second compound 3.16 µM, first compound 0.0316 µM
[26] = second compound 3.16 µM, first compound 0.1 µM
[27] = second compound 3.16 µM, first compound 0.316 µM
[28] = second compound 3.16 µM, first compound 1 µM
[29] = second compound 3.16 µM, first compound 3.16 µM
[30] = second compound 3.16 µM, first compound 10 µM
[31] = second compound 10 µM, first compound 0.0316 µM
[32] = second compound 10 µM, first compound 0.1 µM
[33] = second compound 10 µM, first compound 0.316 µM
[34] = second compound 10 µM, first compound 1 µM
[35] = second compound 10 µM, first compound 3.16 µM
[36] = second compound 10 µM, first compound 10 µM
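Also: spheroids exposed to drugs for 7 days before viability reading.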
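For viability, T/C in this document: 100% = DMSO vehicle control viability.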

SMILES: CC1COCCN1c1cc(C2(O)CC3CCC(C2)O3)c2cnn(-c3ccn[nH]3)c2n1 (stereo unspecified) + CN(C)c1ccc(Nc2c3ccc(NC(=O)CCN4CCCC4)cc3nc3cc(NC(=O)CCN4CCCC4)ccc23)cc1
- IC50 (second compound 0.0316 µM): 0.134 µM
- IC50 (second compound 0.1 µM): 0.221 µM
- IC50 (second compound 0.316 µM): 0.148 µM
- IC50 (second compound 1 µM): 0.162 µM
- IC50 (second compound 3.16 µM): 0.112 µM
- IC50 (second compound 10 µM): 0.0664 µM
- viability, T/C [1]: 72.6%
- viability, T/C [2]: 48.7%
- viability, T/C [3]: 40.9%
- viability, T/C [4]: 29.4%
- viability, T/C [5]: 24.3%
- viability, T/C [6]: 12.3%
- viability, T/C [7]: 70.3%
- viability, T/C [8]: 56.9%
- viability, T/C [9]: 48.3%
- viability, T/C [10]: 32.6%
- viability, T/C [11]: 22.8%
- viability, T/C [12]: 13.6%
- viability, T/C [13]: 66.3%
- viability, T/C [14]: 48.8%
- viability, T/C [15]: 47.3%
- viability, T/C [16]: 31.9%
- viability, T/C [17]: 20.4%
- viability, T/C [18]: 13.2%
- viability, T/C [19]: 69.6%
- viability, T/C [20]: 50.3%
- viability, T/C [21]: 46.6%
- viability, T/C [22]: 31.1%
- viability, T/C [23]: 24.7%
- viability, T/C [24]: 14.3%
- viability, T/C [25]: 58.5%
- viability, T/C [26]: 51.2%
- viability, T/C [27]: 40.5%
- viability, T/C [28]: 35.2%
- viability, T/C [29]: 23.9%
- viability, T/C [30]: 15.6%
- viability, T/C [31]: 61.7%
- viability, T/C [32]: 39%
- viability, T/C [33]: 36.8%
- viability, T/C [34]: 28.2%
- viability, T/C [35]: 21.6%
- viability, T/C [36]: 14.8%

SMILES: Cn1ncnc1[C@H]1c2n[nH]c(=O)c3cc(F)cc(c23)N[C@@H]1c1ccc(F)cc1 + Cc1[nH]c2ccc(F)cc2c1-c1nc2c3cccnc3c3ncccc3c2[nH]1
- IC50 (second compound 0.0316 µM): > 0.316 µM
- IC50 (second compound 0.1 µM): > 0.316 µM
- IC50 (second compound 0.316 µM): > 0.316 µM
- IC50 (second compound 1 µM): > 0.316 µM
- IC50 (second compound 3.16 µM): > 0.316 µM
- IC50 (second compound 10 µM): > 0.316 µM
- viability, T/C (second compound 0.0316 µM, first compound 0.000999 µM): 89.4%
- viability, T/C (second compound 0.0316 µM, first compound 0.00316 µM): 93.6%
- viability, T/C (second compound 0.0316 µM, first compound 0.00999 µM): 90.2%
- viability, T/C [1]: 86.6%
- viability, T/C (second compound 0.0316 µM, first compound 0.0999 µM): 95.2%
- viability, T/C [3]: 94.7%
- viability, T/C (second compound 0.1 µM, first compound 0.000999 µM): 101%
- viability, T/C (second compound 0.1 µM, first compound 0.00316 µM): 98.9%
- viability, T/C (second compound 0.1 µM, first compound 0.00999 µM): 96.7%
- viability, T/C [7]: 110%
- viability, T/C (second compound 0.1 µM, first compound 0.0999 µM): 94.1%
- viability, T/C [9]: 78.1%
- viability, T/C (second compound 0.316 µM, first compound 0.000999 µM): 95.2%
- viability, T/C (second compound 0.316 µM, first compound 0.00316 µM): 94.2%
- viability, T/C (second compound 0.316 µM, first compound 0.00999 µM): 97.9%
- viability, T/C [13]: 89.5%
- viability, T/C (second compound 0.316 µM, first compound 0.0999 µM): 80.4%
- viability, T/C [15]: 78.4%
- viability, T/C (second compound 1 µM, first compound 0.000999 µM): 94.8%
- viability, T/C (second compound 1 µM, first compound 0.00316 µM): 90.9%
- viability, T/C (second compound 1 µM, first compound 0.00999 µM): 88.6%
- viability, T/C [19]: 83.5%
- viability, T/C (second compound 1 µM, first compound 0.0999 µM): 85.9%
- viability, T/C [21]: 79.5%
- viability, T/C (second compound 3.16 µM, first compound 0.000999 µM): 89.3%
- viability, T/C (second compound 3.16 µM, first compound 0.00316 µM): 84.5%
- viability, T/C (second compound 3.16 µM, first compound 0.00999 µM): 84.7%
- viability, T/C [25]: 77.7%
- viability, T/C (second compound 3.16 µM, first compound 0.0999 µM): 81.8%
- viability, T/C [27]: 72.6%
- viability, T/C (second compound 10 µM, first compound 0.000999 µM): 73.8%
- viability, T/C (second compound 10 µM, first compound 0.00316 µM): 85.6%
- viability, T/C (second compound 10 µM, first compound 0.00999 µM): 86.4%
- viability, T/C [31]: 76.5%
- viability, T/C (second compound 10 µM, first compound 0.0999 µM): 72.5%
- viability, T/C [33]: 74.3%

SMILES: C#Cc1c(F)ccc2cc(O)cc(-c3ncc4c(N5CC6CCC(C5)N6)nc(OCC56CCCN5CC(F)C6)nc4c3F)c12 (stereo unspecified) + Cc1cnc(CNC(=O)c2c(=O)c3ccc(N4CCCN(C)CC4)nc3n3c2sc2ccccc23)cn1
- IC50 (second compound 0.0316 µM): > 10 µM
- IC50 (second compound 0.1 µM): > 10 µM
- IC50 (second compound 0.316 µM): > 10 µM
- IC50 (second compound 1 µM): > 10 µM
- IC50 (second compound 3.16 µM): > 10 µM
- IC50 (second compound 10 µM): < 0.0316 µM
- viability, T/C [1]: 93.2%
- viability, T/C [2]: 94.4%
- viability, T/C [3]: 101%
- viability, T/C [4]: 88%
- viability, T/C [5]: 98.5%
- viability, T/C [6]: 90.7%
- viability, T/C [7]: 92.9%
- viability, T/C [8]: 74.9%
- viability, T/C [9]: 76.7%
- viability, T/C [10]: 93.5%
- viability, T/C [11]: 90.8%
- viability, T/C [12]: 82.9%
- viability, T/C [13]: 72.5%
- viability, T/C [14]: 74.6%
- viability, T/C [15]: 70.4%
- viability, T/C [16]: 93.3%
- viability, T/C [17]: 91.8%
- viability, T/C [18]: 66.7%
- viability, T/C [19]: 60.7%
- viability, T/C [20]: 60.8%
- viability, T/C [21]: 61.4%
- viability, T/C [22]: 66.3%
- viability, T/C [23]: 67.4%
- viability, T/C [24]: 52.5%
- viability, T/C [25]: 56.4%
- viability, T/C [26]: 49.2%
- viability, T/C [27]: 49.8%
- viability, T/C [28]: 57%
- viability, T/C [29]: 50.9%
- viability, T/C [30]: 54%
- viability, T/C [31]: 36.3%
- viability, T/C [32]: 14.9%
- viability, T/C [33]: 39.6%
- viability, T/C [34]: 40.7%
- viability, T/C [35]: 36.9%
- viability, T/C [36]: 0.57%
